Experiment [1] concerns Gram (−) specie Escherichia coli. The experiment in a line: Drug elution and zone of inhibition study (disk susceptibility, M02-A11). The class given is cell-based. As to the method:
(§1) After preparation, the samples were then cut into disk-sized plastics that were applied to the surface of Mueller-Hinton agar dishes that had been already inoculated with either Gram (+) specie Bacillius subtilis or the Gram (−) specie Escherichia coli at a concentration of 1-5×10^8 cells/mL. After application, the plates were then incubated for five days 30° C., during which the zones of inhibition were measured every 24 hours to determine the change of diameter of the inhibition zone size over time. Samples were run in triplicate (n=3) for each plastic type-additive combination (as well as the LDPE plastic control samples) in order to ensure precision.
(§2) To compare the ability of plastics to elute drug and to determine the effect of the addition of LDPE into plastics, statistical analyses were performed by fitting a regression model.

Experiment [2] has as its system Gram (+) specie Bacillius subtilis. Described as above. In kind it is cell-based, Bacillus subtilis. As to the method:
as §1, §2

In experiment [3] the test system is bacteria. Particulars: cited from earlier work.
Where [4] appears, read: plastics with 15% of the additive, range over plastic types.
The mark [5] stands for this setting: plastics with the additive imbedded.

`O=NO` [sodium nitrite]: the “inhibition zone after 5 days” value in experiment [1] (setting [4]) and in experiment [2] (setting [4]) was 0 mm each time. For the same molecule, the “zones of inhibition on inoculated petri dishes (in words)” value in experiment [1] (setting [5]) and in experiment [2] (setting [5]) was “did not generate any zones of inhibition” throughout.

Regarding `O=C([O-])c1ccccc1.[Na+]` [sodium benzoate], the “zone of inhibition at decreased amount of food preservative (in words)” value in experiment [2] (10% and 5% additive in the plastic) is “unable to produce a zone of inhibition”.

Take `OCC(O)CO` [glycerol]: the “concentration required for bacteriocidial properties” value in experiment [3] was “at least 28%”.

These data come from patent US20160289449A1, “PROTEIN-BASED BIOPLASTICS AND METHODS OF USE” (University of Georgia Research Foundation, Inc., priority 2015, published 2016).
